Each structure is given as a SMILES string. Where a name gives a salt, the structure may show the parent alone.

The text below walks through data of US10717729B2, “Thiamine-organic acid salt” (Purdue Research Foundation, priority 2018, dated 2020).

The conditions of series [1]: dynamic moisture sorption, 25° C. How it is done: Moisture sorption profiles were generated at 25° C. using an SGA-100 symmetrical gravimetric analyzer (TA Instrument, New Castle, Del.). The samples (5-20 mg) were exposed to 25% to 95% relative humidity (RH) at step size of 5% RH and from 95 to 99% RH at step size of 1% RH, with a maximum step time of 360 min. The equilibrium criteria were set to change of mass of less than 0.01% (w/w) for 5 min for each step. Nitrogen was used as the purge gas.

With `Cc1ncc(C[n+]2csc(CCO)c2C)c(N)n1` [Thiamine Cl HCl, thiamine chloride hydrochloride], the stability in solution result was “exhibit instability in solution”. Further, the “relative humidity at which high/elevated hygroscopicity is seen” value in series [1] came to 95 % RH.
`Cc1ncc(C[n+]2csc(CCO)c2C)c(N)n1.[Cl-]` [Thiamine Cl, thiamine chloride]: in series [1], the “relative humidity at which high/elevated hygroscopicity is seen” value amounted to 88 % RH.
